Laboratory results: publication PMC5983452 (PLoS ONE, 2018)
Counter-ions that a name gives are not always drawn. Like-named read-outs stand apart in the source and are kept apart here.

Tested on: panel of 240 cancer cell lines
Experiment: Proliferation in a broad panel of 240 cancer cell lines, 2D culture (Eurofins Panlabs Oncopanel)
Assay type: cell-based
Conditions: read-out: IC50
Method: Cell lines used in these experiments were obtained from the following sources and were cultured according to conditions specified by the respective cell banks. […] The cell lines listed above were tested for mycoplasma and were negative. Cells were authenticated by STR method or vendor protocols. All 313 cell lines in the CRIPSR pooled screen were purchased from commercial vendors and were STR authenticated and mycoplasma negative. A broad panel of cancer cell lines was screened in the Eurofins Oncopanel. All cells in this panel were mycoplasma negative and STR verified.

NC1CCC(S(=O)(=O)N2C3CCC2CC(NC(=O)c2cc(C4CC4)on2)C3)CC1 [EPZ028862, N-((1R,3R,5S)-8-((1r,4R)-4-aminocyclohexylsulfonyl)-8-aza-bicyclo[3.2.1]octan-3-yl)-5-cyclopropylisoxazole-3-carboxamide hydrochloride]
IC50 (5637, Bladder): > 25 µM | IC50 (A7, Skin): > 25 µM | IC50 (AGS, Colon/GI): > 25 µM | IC50 (BC-1, Haematopoietic and lymphoid): > 25 µM | IC50 (BM-1604, BM-1604, Prostate): > 25 µM | IC50 (C32, Skin): > 25 µM | IC50 (C32TG, Skin): > 25 µM | IC50 (C-4 I, Female GU): > 25 µM | IC50 (CEM/C1, CEM-C1, Haematopoietic and lymphoid): > 25 µM | IC50 (CML-T1, CML-T1, Haematopoietic and lymphoid): > 25 µM | IC50 (DB, Haematopoietic and lymphoid): > 25 µM | IC50 (DK-MG, CNS): > 25 µM | IC50 (EB-3, Haematopoietic and lymphoid): > 25 µM | IC50 (EM-2, Haematopoietic and lymphoid): > 25 µM | IC50 (ES-2, Female GU): > 25 µM | IC50 (H4, CNS): > 25 µM | IC50 (HLE, Liver): > 25 µM | IC50 (HLF, Liver): > 25 µM | IC50 (HOS, Soft Tissue): > 25 µM | IC50 (HT, Haematopoietic and lymphoid): > 25 µM | IC50 (HT-3, Female GU): > 25 µM | IC50 (HUH-6-clone5, HUH-6 Clone 5, Liver): > 25 µM | IC50 (Homo sapiens, 22Rv1, 22Rv1, Prostate): > 25 µM | IC50 (Homo sapiens, 639-V, Bladder): > 25 µM | IC50 (Homo sapiens, 647-V, Bladder): > 25 µM | IC50 (Homo sapiens, 769-P, Kidney): > 25 µM | IC50 (Homo sapiens, 786-0, 786-O, Kidney): > 25 µM | IC50 (Homo sapiens, A101D, Skin): > 25 µM | IC50 (Homo sapiens, A 172, A172, CNS): > 25 µM | IC50 (Homo sapiens, A204, A204, Soft Tissue): > 25 µM | IC50 (Homo sapiens, A498, A498, Kidney): > 25 µM | IC50 (Homo sapiens, A549, A549, Lung): > 25 µM | IC50 (Homo sapiens, A673, A-673, Soft Tissue): > 25 µM | IC50 (Homo sapiens, A-375, A375, Skin): > 25 µM | IC50 (Homo sapiens, A-427, A427, Lung): > 25 µM | IC50 (Homo sapiens, A-431, A431, Skin): > 25 µM | IC50 (Homo sapiens, ACHN, Kidney): > 25 µM | IC50 (Homo sapiens, AN3-CA, AN3 CA, Female GU): > 25 µM | IC50 (Homo sapiens, ARH-77, ARH-77, Haematopoietic and lymphoid): > 25 µM | IC50 (Homo sapiens, ASPC1, AsPC-1, Pancreas): > 25 µM | IC50 (Homo sapiens, AU565, AU565, Breast): > 25 µM | IC50 (Homo sapiens, BE(2)-C, BE(2)C, CNS): > 25 µM | IC50 (Homo sapiens, BFTC-905, BFTC-905, Bladder): > 25 µM | IC50 (Homo sapiens, BHT-101, BHT-101, Endocrine): > 25 µM | IC50 (Homo sapiens, BPH-1, BPH1, Prostate): > 25 µM | IC50 (Homo sapiens, BT-20, BT20, Breast): > 25 µM | IC50 (Homo sapiens, BT-474, BT474, Breast): > 25 µM | IC50 (Homo sapiens, BT-549, BT-549, Breast): > 25 µM | IC50 (Homo sapiens, BV-173, BV-173, Haematopoietic and lymphoid): > 25 µM | IC50 (Homo sapiens, BXPC-3, BxPC-3, Pancreas): > 25 µM | IC50 (Homo sapiens, BeWo, Female GU): > 25 µM | IC50 (Homo sapiens, C-4-II, C-4 II, Female GU): > 25 µM | IC50 (Homo sapiens, C-33-A, C-33A, Female GU): > 25 µM | IC50 (Homo sapiens, CAKI-1, Caki-1, Kidney): > 25 µM | IC50 (Homo sapiens, CAKI-2, Caki-2, Kidney): > 25 µM | IC50 (Homo sapiens, CAL-27, Cal 27, Head and Neck): > 25 µM | IC50 (Homo sapiens, CAL-62, CAL-62, Endocrine): > 25 µM | IC50 (Homo sapiens, CAMA-1, CAMA-1, Breast): > 25 µM | IC50 (Homo sapiens, CAPAN-1, Capan-1, Pancreas): > 25 µM | IC50 (Homo sapiens, CCF-STTG1, CCF-STTG1, CNS): > 25 µM | IC50 (Homo sapiens, CCRF-CEM, CCRFCEM, Haematopoietic and lymphoid): > 25 µM | IC50 (Homo sapiens, CFPAC-1, CFPAC-1, Pancreas): > 25 µM | IC50 (Homo sapiens, CGTH-W-1, CGTH-W-1, Endocrine): > 25 µM | IC50 (Homo sapiens, CHL-1, CHL-1, Skin): > 25 µM | IC50 (Homo sapiens, CHP-212, CHP-212, CNS): > 25 µM | IC50 (Homo sapiens, COLO 201, Colo 201, Colon/GI): > 25 µM | IC50 (Homo sapiens, COLO 205, Colo 205, Colon/GI): > 25 µM | IC50 (Homo sapiens, COLO 320DM, Colon/GI): > 25 µM | IC50 (Homo sapiens, COLO-320-HSR, Colo 320 HSR, Colon/GI): > 25 µM | IC50 (Homo sapiens, COLO-829, COLO 829, Skin): > 25 µM | IC50 (Homo sapiens, COR-L23, COR-L23, Lung): > 25 µM | IC50 (Homo sapiens, COR-L105, COR-L105, Lung): > 25 µM | IC50 (Homo sapiens, CRO-AP2, CRO-AP2, Haematopoietic and lymphoid): > 25 µM | IC50 (Homo sapiens, Calu-1, Calu1, Lung): > 25 µM | IC50 (Homo sapiens, Calu-6, Calu6, Lung): > 25 µM | IC50 (Homo sapiens, Caov-3, CaOV3, Female GU): > 25 µM | IC50 (Homo sapiens, Capan-2, Capan-2, Pancreas): > 25 µM | IC50 (Homo sapiens, ChaGo-K-1, ChaGoK1, Lung): > 25 µM | IC50 (Homo sapiens, D283 Med, CNS): > 25 µM | IC50 (Homo sapiens, DBTRG-05MG, CNS): > 25 µM | IC50 (Homo sapiens, DLD-1, DLD-1, Colon/GI): > 25 µM | IC50 (Homo sapiens, DMS-53, DMS53, Lung): > 25 µM | IC50 (Homo sapiens, DMS-114, DMS114, Lung): > 25 µM | IC50 (Homo sapiens, DMS-273, DMS273, Lung): > 25 µM | IC50 (Homo sapiens, DOHH-2, DOHH-2, Haematopoietic and lymphoid): 8.66 µM | IC50 (Homo sapiens, DU-145, DU145, Prostate): > 25 µM | IC50 (Homo sapiens, Daoy, CNS): > 25 µM | IC50 (Homo sapiens, Daudi, Haematopoietic and lymphoid): > 25 µM | IC50 (Homo sapiens, Detroit 562, Detroit 562, Head and Neck): > 25 µM | IC50 (Homo sapiens, DoTc2-4510, DoTc2 4510, Female GU): > 25 µM | IC50 (Homo sapiens, EFM-19, EFM-19, Breast): > 25 µM | IC50 (Homo sapiens, FaDu, Head and Neck): > 25 µM | IC50 (Homo sapiens, G-401, G-401, Kidney): > 25 µM | IC50 (Homo sapiens, G-402, G-402, Kidney): > 25 µM | IC50 (Homo sapiens, HCT-8, HCT-8, Colon/GI): > 25 µM | IC50 (Homo sapiens, HCT-15, HCT-15, Colon/GI): > 25 µM | IC50 (Homo sapiens, HCT-116, HCT-116, Colon/GI): > 25 µM | IC50 (Homo sapiens, HEC-1-A, Female GU): > 25 µM | IC50 (Homo sapiens, HEL 92.1.7, HEL-92-1-7, Haematopoietic and lymphoid): > 25 µM | IC50 (Homo sapiens, HMCB, Skin): > 25 µM | IC50 (Homo sapiens, HPAF-II, Pancreas): > 25 µM | IC50 (Homo sapiens, HT1197, HT-1197, Bladder): > 25 µM | IC50 (Homo sapiens, HT-29, HT-29, Colon/GI): > 25 µM | IC50 (Homo sapiens, HT-1080, HT-1080, Soft Tissue): > 25 µM | IC50 (Homo sapiens, HT-1376, HT1376, Bladder): > 25 µM | IC50 (Homo sapiens, HeLa, Female GU): > 25 µM | IC50 (Homo sapiens, HepG2, HepG2, Liver): > 25 µM | IC50 (Homo sapiens, Hs 294T, Skin): > 25 µM | IC50 (Homo sapiens, Hs 695T, Skin): > 25 µM | IC50 (Homo sapiens, Hs746T, HS 746T, Colon/GI): > 25 µM | IC50 (Homo sapiens, Hs-578T, Hs 578T, Breast): > 25 µM | IC50 (Homo sapiens, HuCCT-1, HuCCT1, Liver): > 25 µM | IC50 (Homo sapiens, HuP-T4, HuP-T4, Pancreas): > 25 µM | IC50 (Homo sapiens, J-RT3-T3-5, J-RT3-T3-5, Haematopoietic and lymphoid): > 25 µM | IC50 (Homo sapiens, JEG-3, JEG-3, Female GU): > 25 µM | IC50 (Homo sapiens, Jurkat, Haematopoietic and lymphoid): > 25 µM | IC50 (Homo sapiens, K562, K562, Haematopoietic and lymphoid): > 25 µM | IC50 (Homo sapiens, KATO III, Colon/GI): > 25 µM | IC50 (Homo sapiens, L-428, L-428, Haematopoietic and lymphoid): > 25 µM | IC50 (Homo sapiens, LNCaP, Prostate): > 25 µM
